Results from EP4745130A1, “CRYSTAL FORMS OF TUBULIN-SRC DUAL-TARGETING INHIBITOR, PREPARATION METHOD THEREFOR AND USE THEREOF” (Hubei Bio-Pharmaceutical Industrial Technological Institute …, priority 2023, dated 2025).

Columns and labels:
[1] = tested on: Human cutaneous squamous cell carcinoma cell A-431; experiment: Cell proliferation inhibition test, A-431; assay type: cell-based; settings: A-431, 96 h, 4 days incubation
Procedure: Human cutaneous squamous cell carcinoma cell A-431 (ATCC, CRL-1555) and actinic keratosis patient-derived cell HT 297.T (ATCC, CRL-7782) proliferation assays were used to detect the inhibitory effect of small molecular compounds on cell proliferation.
A-431 cells and HT 297.T cells were cultured in DMEM medium containing 10% fetal bovine serum and grown at 37°C in a 5% CO2 incubator. Cells on logarithmic phase were seeded into a 96-well cell culture plate at 1000 cells/well, 100 µL per well, and then cultured overnight at 37°C in a 5% CO2 incubator. The next day, 100 µL of gradient-diluted 2× test compound solution was added to each well, with DMSO serving as a positive control, and 10 µM staurosporine (Aladdin, S102392) was set as a negative control group. After the addition of the compounds, the culture plate was incubated for another 4 days at 37°C in a 5% CO2 incubator. After incubation, the Steady-Glo® luciferase assay system (Promega, G9243) was used according to the supplier's instructions to measure the fluorescence signal value on the Envision 2104 Multilabel Reader. The inhibition rate was calculated by the following formula, then the curve was plotted with the Log value of the inhibitor concentration as the X-axis and the inhibition rate as the Y-axis, and the IC50 was calculated using Graphpad 8.0. [formula] […]

[2] = Human liver microsome stability test; assay type: in vitro ADME
Procedure: The human liver microsome stability test was performed by incubating the compound and human liver microsomes in vitro. First, the compound to be tested was prepared into a 10 mM stock solution in DMSO solvent, and then the compound was diluted to 0.5 mM with acetonitrile. Human liver microsomes (Corning) were diluted with PBS into a microsome/buffer solution, and the solution was used to dilute 0.5 mM compound into a working solution, in which the concentration of the compound was 1.5 µM, and the concentration of human liver microsomes was 0.75 mg/mL. A deep-well plate was taken, 30 µL of the working solution was added per well, and then 15 µL of pre-heated 6 mM NADPH solution was added thereto to initiate a reaction, and the reaction was incubated at 37°C. At 0, 5, 15, 30 and 45 min of the incubation, 135 µL of acetonitrile was added to the corresponding wells to terminate the reaction. After the reaction was terminated with acetonitrile at the last time point of 45 min, the deep-well plate was vortexed and shaken for 10 min (600 rpm), and then centrifuged for 15 min. After centrifugation, the supernatant was collected, and added with purified water in a ratio of 1:1 to perform LC-MS/MS detection. A ratio of a peak area of compound to a peak area of internal standard at each time point was obtained, and the peak area ratios of the compound at 5, 15, 30 and 45 min were compared with the peak area ratio at 0 min to calculate the remaining percentage of the compound at each time point. T1/2 was calculated by using GraphPad 5 software. Table 45: Results of human liver microsome stability test

tubulin = biological target: T1, tubulin (Sus scrofa, UniProt P02550+P02554); experiment: Inhibition test of tubulin monomer polymerization (Tubulin polymerization assay kit, fluorescence); assay type: biochemical
T1 construct: purchased cytoskeleton BK011P
Procedure: Tubulin polymerization assay kit (cytoskeleton, Cat. # BK011P) was used to conduct the compound inhibition test of tubulin monomer polymerization.
Before the test, the 96-well plate (Corning Costar, Cat. # 3686) supplied with the kit was first placed in a microplate reader (MD, SpectraMax M5) and heated to 37°C, maintained for 10 minutes. The 96-well plate was then removed, and 5 µL of 12.5 µM compound solution or blank solution was added thereto. The 96-well plate was then placed back into the microplate reader and incubated at 37°C for 1 minute to heat the compound solution to 37°C. The 96-well plate was removed and 50 µL of reaction mixture prepared according to the supplier's instructions was quickly added to each well, completing the sample addition within 1 minute to avoid the formation of bubbles. The 96-well plate was then immediately placed back into the microplate reader, shaken for 5 seconds, and using the Kinetic mode, continuous detection was carried out at 37°C for 30 to 60 minutes under the conditions of excitation light at 360 nm and emission light at 420 nm, with detection every 30 seconds. Taking the detection time as the X-axis and the fluorescence signal value as the Y-axis, the tubulin monomer polymerization curve was obtained. As shown in FIG. 66 and Table 40, the larger the Vmax value and the higher the maximum fluorescence signal value of the polymerization curve, the lower the inhibitory efficiency of the compound.

T1 sequence (P02550 whole entry): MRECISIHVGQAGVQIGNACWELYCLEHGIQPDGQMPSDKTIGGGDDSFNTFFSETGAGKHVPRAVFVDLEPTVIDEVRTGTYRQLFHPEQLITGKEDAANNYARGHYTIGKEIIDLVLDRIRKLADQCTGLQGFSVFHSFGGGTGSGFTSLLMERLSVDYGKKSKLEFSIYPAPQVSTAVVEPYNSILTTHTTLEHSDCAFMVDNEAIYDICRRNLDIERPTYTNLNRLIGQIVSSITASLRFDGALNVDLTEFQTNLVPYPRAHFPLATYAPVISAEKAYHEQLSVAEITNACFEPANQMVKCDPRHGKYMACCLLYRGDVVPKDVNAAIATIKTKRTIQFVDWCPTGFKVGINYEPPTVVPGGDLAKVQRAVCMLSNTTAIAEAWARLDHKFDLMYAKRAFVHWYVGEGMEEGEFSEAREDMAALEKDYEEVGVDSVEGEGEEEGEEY
T1 sequence (P02554 whole entry): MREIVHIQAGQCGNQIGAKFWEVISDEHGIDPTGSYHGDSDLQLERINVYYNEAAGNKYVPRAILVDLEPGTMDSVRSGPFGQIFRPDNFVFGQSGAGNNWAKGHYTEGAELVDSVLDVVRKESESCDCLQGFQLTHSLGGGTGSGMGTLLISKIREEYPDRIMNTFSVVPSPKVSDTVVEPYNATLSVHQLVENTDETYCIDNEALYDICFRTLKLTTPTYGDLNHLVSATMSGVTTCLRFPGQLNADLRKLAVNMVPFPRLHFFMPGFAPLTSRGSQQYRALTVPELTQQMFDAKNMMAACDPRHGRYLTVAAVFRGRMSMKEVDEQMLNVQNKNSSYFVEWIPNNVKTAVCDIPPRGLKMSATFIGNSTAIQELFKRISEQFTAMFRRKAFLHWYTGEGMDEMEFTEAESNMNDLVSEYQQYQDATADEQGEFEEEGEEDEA

- IC50 [1]: 0.0226 µM
- half-life at 1 µM ([2]; human liver microsomes, NADPH, 37°C, 0-45 min): 17.2 min
- metabolism by human liver microsomes ([2]; in words): metabolized quickly
- Maximum signal value (tubulin; 5 µL of 12.5 µM compound solution, fluorescence ex 360 nm / em 420 nm, 37°C, larger value = lower inhibitory efficiency): 478
- Vmax value and maximum fluorescence signal value of the polymerization curve (tubulin; in words): significantly smaller
Structure (SMILES): Cc1cc(OCCN2C[C@H]3COC[C@H]3C2)ccc1-c1ccc(CC(=O)NCc2ccccc2)nc1 [Compound of Formula I, N-benzyl-2-(5-(2-methyl-4-(2-((3aR,6aS)-tetrahydro-1H-furo[3,4-c]pyrrol-5(3H)-yl)ethoxy)phenyl)pyridin-2-yl)acetamide]
